# PMC12040169 (PLOS Biology, 2025)
# Assay: in vitro
# Conditions: human, hela cells, % viability
row,Structure (SMILES),"viability at 28.5 h, 10 µM [%]"
1,CC(=O)N1CCc2cc(NC(=O)Cn3ccnc3C(C)C)ccc21 [CBK281471],90.1
2,CCCOc1ccc(Cc2nc(N(C)C)cc(N(C)C)n2)cc1 [CBK008318],102
3,CN1CCN(CCCNC(=O)N2CCN(Cc3ccccc3)CC2)CC1 [CBK155621],91.3
4,COCCCN(Cc1cc(F)cc(F)c1)Cc1ccccn1 [CBK282975],100
5,Cc1cc(F)ccc1C(=O)NCC1CCN(c2cnn(C)c(=O)c2)C1 (centres unmarked) [CBK307097],112
6,Cc1ccc(-c2nn(CCC#N)cc2C(=O)N2CCCCC2)cc1C [CBK306131],94.4
7,O=C(N/N=C/c1cc([N+](=O)[O-])ccc1Cl)c1ccc(O)c(O)c1 [CBK261599],112
8,COc1ccc(S(=O)(=O)N(Cc2cc(F)cc(F)c2)C2CCNCC2)cc1 [CBK165292T],89.8
9,S=C(NCCC(c1ccccc1)c1ccccc1)Nc1ccc(Cl)c(Cl)c1 [CBK263972],85.1
10,CCc1c(C)sc2ncn(C3CCN(C(=O)C(C)C)CC3)c(=O)c12 [CBK282377],81.1
11,O=C(Nc1nnc(C2=COCCO2)o1)c1cccc(F)c1 [CBK287408],85.3
12,O=C(COc1cccnc1)N1CCN(c2ccccc2)CC1 [CBK200210],106
13,COc1ccc(-n2cc(-c3ccc(F)cc3)nn2)cc1 [CBK113111],102
14,O=C(/C=C/c1c(F)cccc1Cl)Nc1nnn[nH]1 [CBK265447],102
15,Cc1nc(C)c(C(C)NCc2c(C(C)C)nn(C)c2N(C)C)s1 (centres unmarked) [CBK304005],74.3
16,Nc1ncnc2c1nc1n2[C@H]2C[C@@H](O)[C@@H](C1)O2 [CBK201254],102
17,O=C(NC(Sc1ncccn1)C(=O)c1ccccc1)c1ccccc1 (centres unmarked) [CBK025806],95.5
18,CCn1c2cc(C)sc2c2cnn(CCN3CCCC3)c(=O)c21 [CBK284151],99.7
19,COc1ccc(Oc2nccnc2N2CCN(Cc3ccc(Cl)cc3)CC2)cc1OC [CBK083041T],87.3
20,NC(=O)NCc1ccc(F)cc1 [CBK019769],110
21,CCOC(=O)c1c(NC(=S)N2CCN(S(C)(=O)=O)CC2)sc(C)c1-c1ccccc1 [CBK267072],98
22,CN1CCN(C(=O)CSc2nc(-c3cccs3)cc(C(F)(F)F)n2)CC1 [CBK307372],92.3

row,Structure (SMILES),"viability at 28.5 h, 10 µM [%]"
1,Clc1ccccc1CN1CCC(n2cnc3cccnc32)CC1 [CBK283967],105
2,Fc1cccc(-c2nccnc2NCCc2ccncc2)c1 [CBK036763],95.8
3,NC(=O)CC1C(=O)N(c2ccc(F)cc2)C(=S)N1NC(=O)CCc1ccccc1 (centres unmarked) [CBK268978A],108
4,COc1ccc(CNc2nc(C)n[nH]2)cc1Cl [CBK288036],98.9
5,O=S(=O)(NCc1ccccc1)c1ccc(Cl)c(S(=O)(=O)NCc2ccccc2)c1 [CBK263251],81.9
6,OC1(Cn2ccc3ncccc32)CCN(Cc2cccs2)CC1 [CBK284783],88.3
7,CC(=O)Nc1ccc2nc(Nc3nc4c(F)cc(F)cc4s3)sc2c1 [CBK287489],107
8,O=C(Nc1ncnc2c1[nH]c(=O)n2C1CC(O)C(CO)O1)c1ccccc1 (centres unmarked) [CBK201250],94.6
9,Cc1cn(C(C)C(=O)N(C)C)nc1C1CCCCC1 (centres unmarked) [CBK016092],113
10,O=C(c1ccccc1)c1ccc(S(=O)(=O)N2CCN(Cc3ccc(O)c(F)c3)CC2)cc1 [CBK062948],95.8
11,CCN(CC)C(=O)C1CCCN(C(=O)Nc2cccnc2)C1 (centres unmarked) [CBK156157],96.8
12,CC(=O)OC(COc1ccc2ccccc2c1Br)Cn1cnc2ccccc21 (centres unmarked) [CBK266083],84.6
13,CC(C)c1nccn1CCC(=O)N1CCC(c2ccncc2)CC1 [CBK283512],105
14,C=CCn1c(Cc2csc(NC(=O)Cc3cc(OC)c(OC)c(OC)c3)n2)n[nH]c1=S [CBK295311],87.1
15,COCCN1CC(CNC(=O)Nc2cc(NC(C)=O)ccc2F)CC1=O (centres unmarked) [CBK304398],82.4
16,O=C(NCCNc1cnccn1)c1cccc(Cl)c1Cl [CBK305727],84.9
17,CNC(=O)C1(Cc2ccccc2-c2ccccc2)CCN(C(=O)CCC2CCCC2)CC1 [CBK285696],89.4
18,CC(C)S(=O)(=O)N1C2CCC(C2)[C@@H]1COc1ccc(F)cc1 (some centres unmarked) [CBK285292],101
19,CCCCN(C)c1nccnc1-c1cccc(O)c1 [CBK037652],99
20,COCCN(C)c1ccc(C(=O)N2CCC(N3CCOCC3)CC2)cn1 [CBK306851],111
21,CC(COC(C)(C)C)Oc1nccnc1OCc1ccc(Cl)c(Cl)c1 (centres unmarked) [CBK161607],113
22,CCOC(=O)C1(Cc2cc(-c3ccccc3F)no2)CCNCC1 [CBK284580],101

row,Structure (SMILES),"viability at 28.5 h, 10 µM [%]"
1,O=C(Cc1c[nH]cn1)N1CCC2(CCN(Cc3ccccc3)C2)C1 (centres unmarked) [CBK137147],91
2,Cc1ccc2oc3c(c(=O)c2c1)C(c1ccc(OCC(N)=O)cc1)N(Cc1ccc2c(c1)OCO2)C3=O (centres unmarked) [CBK267189],91.3
3,COC(=O)c1cn([C@H]2CO[C@H]3[C@@H]2OC[C@@H]3NS(=O)(=O)Cc2ccccc2)nn1 [CBK289498],86.9
4,O=S(=O)(NCc1ccc2c(c1)OCO2)c1ccc2c(c1)oc1ccccc12 [CBK268308],104
5,Cc1ccc(-c2c(C(=O)NNC(=S)NCC3CCCO3)csc2C)cc1 (centres unmarked) [CBK267062],86.6
6,CCOC(=O)C1=CC2C(=NC3=C2CCCC3)C=C1 (centres unmarked) [CBK009652],74.6
7,Cc1ccc(-c2nccnc2OCCOc2ccccc2)c(C)c1 [CBK106991],86.1
8,Cc1ccccc1CN1CCCN(C(=O)CCNC(=O)c2ccco2)CC1 [CBK297718],103
9,CC(=O)c1ccc(-c2nccnc2NCc2cccc([N+](=O)[O-])c2)s1 [CBK037509],106
10,COC(=O)C1CCCCN1S(=O)(=O)c1cccc2cccnc12 (centres unmarked) [CBK051244],82.2
11,O=C1CCC(=O)N1CCOc1nccnc1N1CCN(CCc2ccccc2)CC1 [CBK084302],99.4
12,NS(=O)(=O)c1ccc(CNC(=O)c2cc(-c3cccc(Cl)c3)nc3ccccc23)cc1 [CBK267774],88.7
13,CCN(CC)CCOC(=O)C1(c2ccccc2)CCOc2ccccc21 (centres unmarked) [CBK009850C],95.6
14,CSc1ccc(-c2nccnc2OC(c2ccccc2)c2ccccc2)cc1 [CBK106797],90.2
15,O=C(OCCc1ccncc1)N1Cc2ccccc2C1 [CBK200141],95.5
16,Cc1cccc(C)c1NC(=O)Cn1nnc(-c2ccc(CN3CCC(C)CC3)cc2)n1 [CBK121194],87.2
17,COC(=O)CCc1ccc(S(=O)(=O)N2CCN(Cc3csc(-c4ccccc4)n3)CC2)cc1 [CBK062812],91.8
18,CCCn1cc(CN2CC3C[C@@H](O)CN3C[C@@H]2C)c2ccccc21 (some centres unmarked) [CBK285466],104
19,Cc1cc(C)n(-c2ccnc(NCc3cccnc3)n2)n1 [CBK288614],109
20,COc1cc2cc3c(N)c(C(=O)NCc4cccs4)sc3nc2cc1OC [CBK120215],92
21,O=C(O)COCc1cc(-c2ccc3c(c2)OCO3)on1 [CBK286883],110
22,Cc1cc(Nc2ccc(I)cc2)n2ncnc2n1 [CBK027364],100

row,Structure (SMILES),"viability at 28.5 h, 10 µM [%]"
1,CC(C(=O)Nc1ccc(S(N)(=O)=O)cc1)N1Cc2ccccc2C1=O (centres unmarked) [CBK307607],82.8
2,CCc1nc(C)ccc1O [CBK026535C],91
3,CNC(=O)c1ccc(-c2ccc(C)c(C)c2)nc1NCCOC [CBK105999],96.6
4,O=C(/C=C/c1ccc(Cl)cc1)Nc1nnn[nH]1 [CBK265468],81.8
5,O=C(c1[nH]c2ccccc2c1NS(=O)(=O)Cc1ccccc1[N+](=O)[O-])N1CCOCC1 [CBK050079],107
6,CC(C)C[C@@H]1N[C@H](C(=O)NCCN(C)C)Cc2c[nH]c3cccc1c23 [CBK289417],92.9
7,COc1cc(CN2CCC3(CC2)CN(S(C)(=O)=O)c2ccccc23)cc(OC)c1OC [CBK126669],100
8,CCn1c(CN2CCC(c3cc(O)nc(N)n3)C2)nc2c(F)cccc21 (centres unmarked) [CBK304189],87.5
9,Cc1csc(Nc2cccc(C3CCCN3C(=O)CCOc3ccccc3C)n2)n1 (centres unmarked) [CBK285977],101
10,COc1ccc(C(NC(=O)C2CCN(Cc3ccc(OC)c(OC)c3)CC2)c2ccccc2C)cn1 (centres unmarked) [CBK081452T],99.7
11,O=C(OCCC1SC(NC2CC3C=CC2C3)=NC1=O)c1ccc(Cl)c(Cl)c1 (centres unmarked) [CBK200056T],87.1
12,Cc1ccc(OCC(=O)N2CCN(C(=O)c3ccncc3)CC2)cc1 [CBK300480],92.3
13,O=C(Cc1ccc(Cl)cc1)NCCc1c[nH]c2ccccc12 [CBK269787],87
14,Cc1cccc(-n2c(N)cc(=O)nc2SC(C)C(=O)Nc2ccc(S(N)(=O)=O)cc2)c1 (centres unmarked) [CBK266173],99.7
15,O=C(CSc1nnc2ccc3ccccc3n12)Nc1nsc(-c2ccc(Cl)cc2)n1 [CBK266460],99.5
16,COc1ccc(Cl)cc1N1CCN(Cc2ccc(C(C)C)cc2)CC1 [CBK126407],97.6
17,COc1ccc(NC(=O)N[C@H]2CO[C@H]3[C@@H]2OC[C@@H]3n2cc(-c3ccccc3)nn2)cc1 [CBK289506],106
18,Oc1n[nH]c2c1CCC2 [CBK260873],95.4
19,O=S(=O)(NCc1ccccn1)c1ccc(Cl)c(Cl)c1Cl [CBK263978],95.6
20,COC(=O)c1c(NC(=O)C(C)Oc2cc(C)c(Cl)c(C)c2)sc(C(C)=O)c1C (centres unmarked) [CBK265678],94.1
21,CN1CCN(CCCNC(=O)N(CCC#N)C2CCCCC2)CC1 [CBK156346],112
22,CCCCN(C(=O)c1cc(C)nc2ccccc12)c1ccccc1 [CBK296926],89.9

# Same assay, conditions: human, hela cells, % viability, bulk resorufin, single well
row,Structure (SMILES),"viability at 28.5 h, 10 µM [%]"
1,NC(=O)C(=O)c1cn(Cc2ccccc2)c2ccccc12 [CBK288473],96.2
